The target of one experiment is ATX in human whole blood (Homo sapiens (Human), UniProt Q13822). The experiment can be described thus: Assay B: Whole-Blood ATX assay. The experiment is classed as biochemical. The conditions noted are these: 1 h at 37° C., formation of 18:2 LPA.
Another experiment concerns the target Human ATX (Homo sapiens (Human), UniProt Q13822). The experiment can be described thus: Assay A: Biochemical ATX Assay. Conditions: 5 nM recombinant ATX, 18:1 LPC substrate, 2 h at room temperature, formation of 18:1 LPA.
In experiment [1] the test system is plasma LPA (ATX inhibition). The experiment can be described thus: Assay C: In vivo plasma LPA reduction after oral dosing. The conditions noted are these: rats, 5 mg/kg, 8 hours post application, sum of LPA vs baseline. As for the experimental part: The test substance was solubilized in 0.5% natrosol supplemented with 0.015% Tween 80 for oral application to rats at a dose of 5 mg/kg. Blood samples were collected before compound administration and 8 hours post application on ice using EDTA as coagulation agent. Subsequently, plasma was prepared by centrifugation and stored until analysis at −20° C.
LPAs from plasma samples were extracted by using the procedure described by Scherer et al. (Clinical chemistry 2009, 55, 1218-22). 35 μL of heparinized plasma was mixed with 200 μL 40 mM disodium hydrogen phosphate buffer containing 30 mM citric acid (pH 4) and 1 μM 17:0 LPA (internal standard). Subsequently, 500 μL butanol was added and shaken vigorously for 10 min. Samples were centrifuged afterwards at 4000 rpm, 4° C., for 10 min. 500 μL of the organic upper phase was transferred to a fresh 96-deep-well plate and evaporated with a gentle nitrogen flow of 15 psi for 45 min. The resultant residual was dissolved in 100 μL ethanol prior to LC-MS analysis.
LC-MS Method for the Analytic of In Vivo Samples
A Triple Quad 6500 (ABSciex, Toronto, Canada) was equipped with an Agilent 1290 LC system (Agilent, Santa Clara, CA) a CTC autosampler and an Atlantis 50×2.1-mm, 3-μm HILIC LC column (Waters, Elstree, UK). Eluent A contained 0.2% formic acid and 50 mM ammonium formate in water, whereas eluent B consisted of 0.2% formic acid in acetonitrile. […] At 1.8 min, solvent B was set back to 95% and stayed constant for 0.7 min for re-equilibration of the column. The following LPA species were monitored (DP: declustering potential and CE: collision energy): 16:0 LPA at 409.2/152.8, DP=−150, CE=−28; 18:0 LPA at 437.3/152.8, DP=−60, CE=−28; 18:1 LPA at 435.2/152.8, DP=−40, CE=−28; 18:2 LPA at 433.2/152.8, DP=−150, CE=−28; 20:4 LPA at 457.2/152.8, DP=−100, CE=−29 and 17:0 LPA at 423.5/152.8, DP=−100, CE=−36. LPA depletion in percent was calculated based on the baseline LPA levels before test compound application. The sum of LPA refers to the species 16:0; 18:0; 18:1; 18:2 and 20:4

The test system of a further experiment is LPA levels. The conditions noted are these: as disclosed in literature; cited from earlier work.

Data on 15 compounds can be found in patent US12391667B2, “N-methyl, n-(6-(methoxy)pyridazin-3-yl) amine derivatives as Autotaxin (ATX) modulators for the treatment of inflammatory airway or fibrotic diseases” (Boehringer Ingelheim International GmbH, priority 2019, dated 2025).

Experimental for ATX in human whole blood: 45 μL human whole-blood was supplemented with 5 μL of the test compound, dissolved in phosphate-buffered saline (concentration range 0.12 nM-100 μM). This mixture was incubated for 1 h at 37° C. and stopped by addition of 100 μL 40 mM disodium hydrogen phosphate buffer containing 30 mM citric acid (pH 4) and 1 μM 17:0 LPA (internal standard). LPA was extracted by addition of 500 μL 1-butanol, followed by 10-min centrifugation at 4000 rpm, 4° C. From the resultant organic supernatant, a 200 μL aliquot was transferred into a 96-deep-well plate and transferred to the RapidFire-based MS/MS measurement.
The RapidFire autosampler was coupled to a binary pump (Agilent 1290) and a Triple Quad 6500 (ABSciex, Toronto, Canada). This system was equipped with a 10-μL loop, 5-μL Waters Atlantis HILIC cartridge (Waters, Elstree, UK), 90% acetonitrile containing 10 mM ammonium acetate as eluent A and 40% acetonitrile containing 10 mM ammoniumacetate as eluent B. For details see (Bretschneider et al., SLAS Discovery, 2017, 22, 425-432). The MS was operated in negative mode with a source temperature of 550° C., curtain gas=35, gas 1=65, and gas 2=80. The following transitions and MS parameters (DP: declustering potential and CE: collision energy) for the respective LPAs were determined: 18:2 LPA at 433.2/152.8, DP=−150, CE=−27 and 17:0 LPA at 423.5/152.8, DP=−100.
The formation of 18:2 LPA was monitored and evaluated as ratio to 17:0 LPA.
Experimental for Human ATX: 5 nM recombinant ATX (Cayman Chemicals) was supplemented to 50 mM Tris buffer (pH 8.0) containing 3 mM KCl, 1 mM CaCl2), 1 mM MgCl2 0.14 mM NaCl, and 0.1% bovine serum albumin. Test compounds were dissolved in DMSO and tested in the range of 0.1 nM to 10 μM. The enzymatic reaction (22.5 μL) was started by addition of 2.5 μL 10 μM 18:1 LPC (Avanti Lipids, Alabaster, AL, USA). After 2-h incubation at room temperature, the reaction was stopped by addition of 20 μL water containing 500 nM 20:4 LPA as internal standard and 100 μL 1-butanol for extracting LPA. Subsequently, the plates were centrifuged at 4000 rpm, 4° C., for 2 min. The resultant upper butanol phase was directly used for injection at a RapidFire system (Agilent).
The RapidFire autosampler was coupled to a binary pump (Agilent 1290) and a Triple Quad 6500 (ABSciex, Toronto, Canada). […] 1 The MS was operated in negative mode with a source temperature of 550° C., curtain gas=35, gas 1=65, and gas 2=80. The following transitions and MS parameters (DP: declustering potential and CE: collision energy) for the respective LPAs were determined: 18:1 LPA at 435.2/152.8, DP=−40, CE=−28 and 20:4 LPA at 457.2/152.8, DP=−100, CE=−27).
The formation of 18:1 LPA was monitored and evaluated as ratio to 20:4 LPA.

One may read the IC50 as the point on the concentration scale where inhibition reaches its midpoint. On to `CC(=O)N1CCN(c2ccc(C3(Nc4ccc(OCc5ccc(C(F)F)nc5)nn4)CC3)cc2)CC1` [Example 1.5], for which the IC50 stood at 4.3 nM at ATX in human whole blood and 4.2 nM on Human ATX.

On to `CC(=O)N(C)C1CCN(c2ccc(C3(Nc4ccc(OCc5ccc(C(F)F)nc5)nn4)CC3)cc2)CC1` [Example 1.4], for which the IC50 came to 4.3 nM at ATX in human whole blood and 5.8 nM at Human ATX. For the same compound, the “LPA reduction at 8 h” value in experiment [1] is listed as 98.0%.

On to `CC(=O)N1CCN(c2ccc([C@H](C)Nc3ccc(OCc4ccc(C(F)(F)F)nc4)nn3)cc2)CC1` [Example 1.6], for which the results for the IC50 on ATX in human whole blood and on Human ATX were 7.8 nM and 2.6 nM, respectively.

Regarding `CC(=O)N1CCN(c2ccc(C3(Nc4ccc(OCc5ccc(C(F)(F)F)nc5)nn4)CC3)cc2F)CC1` [Example 1.10], the IC50 at ATX in human whole blood is 3.7 nM; at Human ATX, 2.4 nM.

In the case of `CCc1nc2c(C)cc(N3CCN(CC(=O)N4CC(O)C4)CC3)cn2c1N(C)c1nc(-c2ccc(F)cc2)c(C#N)s1` [Example 2 in WO2014/139882, reference compound], in experiment [1], the “LPA reduction at 8 h” value is 58.1%.

With `O=C(NC[C@@H]1[C@H]2CN(C(=O)OCc3cc(C(F)(F)F)cc(C(F)(F)F)c3)C[C@@H]12)c1ccc2[nH]nnc2c1`, the “reduction of LPA levels in vivo” value in the experiment with LPA levels is on record as “significantly reduces LPA levels in vivo”.

As for `CC(=O)N1CCN(c2ccc(C(C)Nc3ccc(OCc4ccc(C(F)(F)F)nc4)nn3)cc2)CC1` (centres unmarked) [Example 1.3], the IC50 against ATX in human whole blood came out at 2 nM; on Human ATX, 2.2 nM.

For `CC(=O)N(C)C1CCN(c2ccc(C3(Nc4ccc(OCc5ccc(C(F)F)nc5)nn4)CC3)cc2)C1` (centres unmarked) [Example 1.7], the IC50 was determined as 7 nM against ATX in human whole blood and 6.7 nM on Human ATX.

For `CC(=O)N1CCN(c2ccc([C@@H](C)Nc3ccc(OCc4ccc(C(F)(F)F)nc4)nn3)cc2)CC1` [Example 1.2], the IC50 against ATX in human whole blood was 1.8 nM; at Human ATX, 3.4 nM. Further, in experiment [1], the “LPA reduction at 8 h” value is 95.9%.

On to `CC(=O)N1CCN(c2ccc(C3(Nc4ccc(OCc5ccc(C(F)(F)F)nc5)nn4)CC3)cn2)CC1` [Example 1.11], for which the IC50 against ATX in human whole blood was determined as 6.9 nM; at Human ATX, 4.4 nM. Moreover, the “LPA reduction at 8 h” value in experiment [1] amounted to 96.3%.

On to `CC(=O)N1CCN(c2ccc([C@@H](CO)Nc3ccc(OCc4ccc(C(F)F)nc4)nn3)cc2)CC1` [Example 1.8], for which the results for the IC50 against ATX in human whole blood and at Human ATX were 1.3 nM and 4.2 nM, respectively.

Take `CC(=O)N1CCN(c2ccc(C3(Nc4ccc(OCc5ccc(C(F)(F)F)nc5)nn4)CC3)cc2)CC1` [Example 1.1, 1-[4-(4-{1-[(6-{[6-(trifluoromethyl)pyridin-3-yl]methoxy}pyridazin-3-yl)amino]cyclopropyl}phenyl)piperazin-1-yl]ethan-1-one]: the IC50 at ATX in human whole blood worked out at 3.5 nM; at Human ATX, 2.5 nM. In experiment [1], the “LPA reduction at 8 h” value came out at 97.0%.

With `CC(=O)N1CCN(c2ccc(C3(Nc4ccc(OCc5ccc(C(F)(F)F)nc5)nn4)CC3)c(F)c2)CC1` [Example 1.12], the IC50 on ATX in human whole blood turned out to be 7.7 nM; on Human ATX it was 4.8 nM.

Regarding `CC(=O)N1CCN(c2ccc([C@@H](CO)Nc3ccc(OCc4ccc(C(F)(F)F)nc4)nn3)cc2)CC1` [Example 1.9], the IC50 at ATX in human whole blood was 5 nM; at Human ATX, 5.3 nM.

Regarding `CC(=O)N1CCN(c2ccc(C3(Nc4ccc(OCc5ccc(C(F)(F)F)nc5)nn4)CC3)cc2C)CC1` [Example 1.13], the IC50 at ATX in human whole blood was determined as 7.1 nM; on Human ATX, 3.4 nM.
